According to BindingDB's records for doi:10.1016/S1074-5521(00)00004-1 (Pfizer, 2000):

Molecular target: T1, Glycogen phosphorylase, liver form (Homo sapiens, UniProt P06737)
T1 sequence (P06737 whole entry): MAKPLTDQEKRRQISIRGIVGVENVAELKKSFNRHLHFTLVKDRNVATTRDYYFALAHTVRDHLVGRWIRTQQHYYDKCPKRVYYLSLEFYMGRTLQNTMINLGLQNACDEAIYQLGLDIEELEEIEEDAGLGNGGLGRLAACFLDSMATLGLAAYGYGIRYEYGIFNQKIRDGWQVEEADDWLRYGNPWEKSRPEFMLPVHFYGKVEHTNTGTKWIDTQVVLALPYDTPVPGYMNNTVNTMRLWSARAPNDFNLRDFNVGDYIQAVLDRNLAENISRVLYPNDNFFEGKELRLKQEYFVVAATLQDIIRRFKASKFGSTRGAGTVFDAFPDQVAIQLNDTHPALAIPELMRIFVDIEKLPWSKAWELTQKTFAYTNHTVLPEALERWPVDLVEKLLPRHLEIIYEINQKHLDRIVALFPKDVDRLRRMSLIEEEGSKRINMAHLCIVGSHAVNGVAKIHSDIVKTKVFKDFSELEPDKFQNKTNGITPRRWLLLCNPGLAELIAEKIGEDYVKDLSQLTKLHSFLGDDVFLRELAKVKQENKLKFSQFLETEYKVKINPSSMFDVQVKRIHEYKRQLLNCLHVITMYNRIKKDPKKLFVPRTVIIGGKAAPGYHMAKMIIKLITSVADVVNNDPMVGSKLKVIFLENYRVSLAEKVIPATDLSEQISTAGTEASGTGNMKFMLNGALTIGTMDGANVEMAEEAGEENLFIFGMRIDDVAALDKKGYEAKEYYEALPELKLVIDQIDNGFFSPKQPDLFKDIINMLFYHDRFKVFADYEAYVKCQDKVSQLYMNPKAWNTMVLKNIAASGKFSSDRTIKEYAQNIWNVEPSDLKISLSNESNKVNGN
Experiment: Inhibition Activity Assay
Details: pH 7.2; 22 °C
Protocol: Human liver glycogen phsphorylase (HLGP) activity was measured in the direction of glycogen synthesis by the release of phosphate from glucose-1-phosphate.

IC50	Compound
0.006 µM	Cc1ccc2[nH]c(C(=O)NCCOCCOCCNC(=O)c3cc4cc(Cl)ccc4[nH]3)cc2c1 [CP-526,423]
12.5 µM	COCCNC(=O)c1cc2cc(Cl)ccc2[nH]1
